Test results reported in the NIST ThermoML archive (doi:10.1016/j.tca.2006.04.016).

Conditions: 101.33 kPa, Liquid, Vibrating tube method

CN(C)CCCN [N,N-dimethyl-1,3-propanediamine]
Conditions	mass density [kg/m3]
278.15 K	830.37
278.65 K	829.93
279.15 K	829.49
279.65 K	829.05
280.15 K	828.61
280.65 K	828.17
281.15 K	827.73
281.65 K	827.29
282.15 K	826.84
282.65 K	826.4
283.15 K	825.96
283.65 K	825.52
284.15 K	825.08
284.65 K	824.64
285.15 K	824.2
285.65 K	823.76
286.15 K	823.32
286.65 K	822.88
287.15 K	822.44
287.65 K	822
288.15 K	821.56
288.65 K	821.12
289.15 K	820.67
289.65 K	820.23
290.15 K	819.79
290.65 K	819.35
291.15 K	818.91
291.65 K	818.47
292.15 K	818.03
292.65 K	817.58
293.15 K	817.14
293.65 K	816.7
294.15 K	816.26
294.65 K	815.82
295.15 K	815.37
295.65 K	814.93
296.15 K	814.49
296.65 K	814.05
297.15 K	813.6
297.65 K	813.16
298.15 K	812.72
298.65 K	812.27
299.15 K	811.83
299.65 K	811.39
300.15 K	810.94
300.65 K	810.5
301.15 K	810.06
301.65 K	809.61
302.15 K	809.17
302.65 K	808.72
303.15 K	808.28
303.65 K	807.84
304.15 K	807.39
304.65 K	806.95
305.15 K	806.5
305.65 K	806.06
306.15 K	805.61
306.65 K	805.17
307.15 K	804.72
307.65 K	804.28
308.15 K	803.83
308.65 K	803.39
309.15 K	802.94
309.65 K	802.5
310.15 K	802.05
310.65 K	801.61
311.15 K	801.16
311.65 K	800.72
312.15 K	800.27
312.65 K	799.82
313.15 K	799.38
313.65 K	798.93
314.15 K	798.48
314.65 K	798.04
315.15 K	797.59
315.65 K	797.14
316.15 K	796.69
316.65 K	796.25
317.15 K	795.8
317.65 K	795.35
318.15 K	794.9
318.65 K	794.45
319.15 K	794.01
319.65 K	793.56
320.15 K	793.11
320.65 K	792.66
321.15 K	792.21
321.65 K	791.76
322.15 K	791.31
322.65 K	790.86
323.15 K	790.41
323.65 K	789.96
324.15 K	789.52
324.65 K	789.06
325.15 K	788.62
325.65 K	788.17
326.15 K	787.72
326.65 K	787.26
327.15 K	786.81
327.65 K	786.36
328.15 K	785.91
328.65 K	785.46
329.15 K	785.01
329.65 K	784.56
330.15 K	784.11
330.65 K	783.65
331.15 K	783.2
331.65 K	782.75
332.15 K	782.3
332.65 K	781.84
333.15 K	781.39
333.65 K	780.94
334.15 K	780.49
334.65 K	780.03
335.15 K	779.58
335.65 K	779.12
336.15 K	778.67
336.65 K	778.22
337.15 K	777.76
337.65 K	777.31
338.15 K	776.85
338.65 K	776.4
339.15 K	775.94
339.65 K	775.49
340.15 K	775.03
340.65 K	774.57
341.15 K	774.11
341.65 K	773.66
342.15 K	773.2
342.65 K	772.74
343.15 K	772.29
343.65 K	771.83
344.15 K	771.37
344.65 K	770.91
345.15 K	770.45
345.65 K	769.99
346.15 K	769.53
346.65 K	769.08
347.15 K	768.62
347.65 K	768.16
348.15 K	767.7
348.65 K	767.24
349.15 K	766.78
349.65 K	766.32
350.15 K	765.86
350.65 K	765.4
351.15 K	764.94
351.65 K	764.48
352.15 K	764.02
352.65 K	763.56
353.15 K	763.1
353.65 K	762.64
354.15 K	762.17
354.65 K	761.71
355.15 K	761.25
355.65 K	760.79
356.15 K	760.33
356.65 K	759.86
357.15 K	759.4
357.65 K	758.94
358.15 K	758.48
358.65 K	758.01
359.15 K	757.55
359.65 K	757.08
360.15 K	756.62
360.65 K	756.15
361.15 K	755.69
361.65 K	755.22
362.15 K	754.75
362.65 K	754.28
363.15 K	753.82
